Consider eight compounds from ChEMBL document CHEMBL3046141, “Partition coefficient determination of a series of isoindolines-2-substituted and its correlation with their antiproliferative activity on HeLa cells” (Med Chem Res, 2013).

Series [1] concerns HeLa. Put plainly: Cytotoxicity against Homo sapiens (human) HeLa cells assessed as cell viability after 24 hr by crystal violet staining. The class given is functional, cell-based.
Series [2] can be described thus: n-octanol-water partition coefficient, log P of the compound by shake-flask method. Type of series: physicochemical.
For series [3], the system named is HeLa. As to the kind of experiment: Cytotoxicity against Homo sapiens (human) HeLa cells assessed as metabolic active cells after 24 hr by MTT assay. The class given is functional, cell-based. In general terms: Tetrazolium dyes change colour on reduction, which living cells bring about.

`COC(=O)[C@H](Cc1c[nH]c2ccccc12)N1Cc2ccccc2C1`: the IC50 with HeLa [1] was 8.44 mM; with HeLa [3] it was 9.71 mM. The same compound returned a logP in series [2] of 1.45.

On to `O=C(O)[C@H](c1ccccc1)N1Cc2ccccc2C1`, for which the half-inhibitory concentration (IC50) with HeLa [1] was found to be 7.07 mM; in the series with HeLa [3] it was 9.48 mM. In series [2], this compound gave a logP of -0.31.

Regarding `COC(=O)[C@H](CC(C)C)N1Cc2ccccc2C1`, the IC50 in the series with HeLa [1] worked out at 3.16 mM; in the series on HeLa [3] it was 2.56 mM. In series [2], the lipophilicity (logP) turned out to be 0.065.

Consider `COC(=O)[C@H](c1ccccc1)N1Cc2ccccc2C1`, for which the half-inhibitory concentration (IC50) in the series on HeLa [1] came out at 5.32 mM; in the series with HeLa [3], 8.25 mM. The compound also had a logP in series [2] of 1.35.

As for `CC(C)C[C@@H](C(=O)O)N1Cc2ccccc2C1`, the IC50 in the series with HeLa [1] was determined as 4.3 mM; in the series with HeLa [3], 4.56 mM. In addition, the logP in series [2] is 0.114.

Consider `O=C(O)CN1Cc2ccccc2C1`, for which the half-inhibitory concentration (IC50) was 5.62 mM in the series on HeLa [1] and 8.74 mM with HeLa [3]. For the same compound, the logP in series [2] is -0.229.

As to `COC(=O)CN1Cc2ccccc2C1`, the half-maximal inhibitory concentration (IC50) with HeLa [1] is 3.65 mM; in the series with HeLa [3], 8.23 mM. Moreover, the logP in series [2] is -0.027.

Regarding `O=C(O)[C@H](Cc1c[nH]c2ccccc12)N1Cc2ccccc2C1`, the IC50 was 8.82 mM in the series with HeLa [1] and 7.6 mM in the series on HeLa [3]. The logP in series [2] was 0.347.

Usually IC50 stands for the concentration that gives 50% inhibition. By logP is commonly meant a log measure of how a compound divides between an organic and an aqueous phase. A higher logP goes with a more lipophilic compound.
